Laboratory results: patent US20020147326A1, “Hexameric fusion proteins and uses therefor” (SmithKline Beecham Corporation, priority 1996, published 2002)

Assays:
[1] = system: murine T-cell hybridoma cell lines expressing human CD28 (PCD28.1.s2.1, DCL27CD28wt.s2); assay: IL-2 production by CD28 T-cell hybridomas (CTLL-2 bioassay); format: cell-based; details: for IL-2 response: cross-linked with GAH antibody, no CD3 antibody; for level of IL-2 response at near saturation: soluble protein 1 ug/ml (FIG. 20C)
From the text: The CD80- and CD86-Igαtp proteins were compared to the corresponding CD80 and CD86-Ig proteins to determine their ability to stimulate cells expressing human CD28 using two murine T-cell hybridoma cell lines expressing human CD28, PCD28.1.s2.1 and DCL27CD28wt.s2. The PCD28.1.s2.1 cell line was described in Example 1, part 3. The DCL27CD28wt.s2 cell line was created by transfection of the DC27 cell line [F. Pages et al., Nature, 369:327-329 (1994); F. Pages et al., J. Biol. Chem., 271(16):9403-9409 (1996)] with the same CD28 expression vector used for the PCD28.1.s2.1 cells [D. Couez et al., Molecular Immunology, 31:47-57 (1994)]. These cell lines were examined for their ability to produce IL-2 in response to activation with CD80- and CD86-Ig in comparison with the corresponding Igαtp fusion proteins. 96-well plates were coated with or without a CD3 antibody together with the CD80 and CD86 fusion proteins. This was accomplished by first incubating the plates with a previously determined suboptimal concentration of hamster […] CD3 antibody (MAb 145-2C11, Boerhinger-Mannheim Biochemicals) for two hours at room temperature (RT) or with just buffer alone, washing the plates with PBS, adding goat anti-human Ig heavy chain (GAH-IgHc, Sigma Chemical Co.) for an additional two hours at RT, washing again and coating with different concentrations of the CD80 or CD86 fusion protein for 16-18 hours at 4° C., washing again, and finally blocking for 30 min. with 0.2% BSA-PBS. T cells (1×10^5/well) were added in 150 μl medium into duplicate wells. For comparison, the soluble fusion proteins and the 248.23.2 CD28 MAb (IgM) [A. Morretta, University of Genova, Italy] were added to non-coated wells. T cells were incubated in the wells for 24 hours at 37° C., and supernatants were collected and evaluated for IL-2 levels in a standard CTLL-2 bioassay [S. M. Gillis et al., J. Immunol., 120:2027 (1978)]. Briefly, 1×10^4 IL-2 dependent CTLL-2 cells (ATCC)/well in 75 μl medium were added to an equal volume of test supernatant and incubated for 24 hours at 37° C. The cells were pulsed with 10 μl of 5 mg/ml MTT (Sigma Chemical Co.) for 4 hours, and lysed with […] 10% SDS/0.01N HCl solution for 14-16 hours. OD570 readings were converted into ng/ml of IL-2 based on a standard curve generated by treating cells with known concentrations of IL-2.
(§1) IL-2 promoter activity and IL-2 levels were measured similarly to that described in parts A and B above, except that proliferation of the reader CTLL-2 cells was measured by ^3H-thymidine incorporation.

[2] = system: PCD28.1.S2.1 cells (human CD28, lacZ fused to the IL-2 promoter); assay: FDG assay for IL-2 promoter activity (lacZ reporter); format: cell-based, murine; details: added directly to PC28.1.s2.1 cells in solution (FIG. 20A)
Method: A second assay for agonist activity measured induction of IL-2 promoter activity, rather than production of IL-2 protein. The PCD28.1.S2.1 cells described above also contain lacZ fused to the IL-2 promoter. Thus, the PCD28.1.S2.1 cell line provides a convenient system for measuring IL-2 promoter activity upon CD28-mediated T cell simulation. T cells were activated as described above for the CTLL-2 assay, spun down, resuspended in 50 μl of media+50 μl of PBS, lysed with 10 μl of 20% Triton X-100, and supplemented with 25 μl of 10 mM FDG (Molecular Probes), a fluorogenic substrate for b-galactosidase. Hydrolysis of FDG first yields fluorescein monogalactoside (FMG) and then the highly fluorescent product fluorescein. Cell lysates were incubated with FDG for 60 min., and the levels of fluorescence were measured by Fluoroscan (MTX Lab Systems, Inc).
as §1

CD28-Ig [3] = target: T1, CD28-Ig (Homo sapiens, UniProt P10747); assay: Isothermal titration calorimetry, binding to CD28-Ig in solution; parameters: native leader and extracellular domain peptide of CD28 and CD80 were grafted onto a human IgG1 heavy chain Fc region; human IgG1 Fc (hinge/CH2/CH3); made in house; host or cells: CHO cells
From the text: The solution binding properties of the hexameric and standard Ig fusion proteins of CD80 and CD86 were compared using isothermal titration calorimetry, essentially as described previously for other proteins [K. Johanson et. al., J. Biol. Chem, 270: 9459-9471 (1995), and references therein].
This lower affinity for CD28 than for CTLA4 is in agreement with other reports [P. S. Linsley et. al., Immunity 1: 793-801 (1994)].

CD28-Ig [4] = target: T1, CD28-Ig; assay: Surface plasmon resonance (BIAcore) on immobilized CD28-Ig; format: binding; parameters: native leader and extracellular domain peptide of CD28 and CD80 were grafted onto a human IgG1 heavy chain Fc region; human IgG1 Fc (hinge/CH2/CH3); made in house; host or cells: CHO cells; details: for dissociation from CD28-Ig coated surface: BIAcore, 10 ul/min
Method: Covalent attachment was achieved by firstly activating the surface with a 1:1 mixture of 0.1 M solution of N-hydroxysuccinamide and 0.1 M 1-ethyl-3-(3-dimethylaminopropyl)carbodiimide. A solution of CD28-Ig 50 ug/ml in 0.01 M sodium acetate pH 4.7 was then passed over the surface. Unreacted N-hydroxysuccinamide esters were then deactivated with 1 M ethanolamine pH 8.5. The surface was equilibrated with running buffer composed of 20 mM HEPES 150 mM NaCl, pH 7.2, 3 mM EDTA and 0.005% Tween 20.
For comparison of CD80-Igαtp and CD86-Igαtp binding with immobilized CD28-Ig, solutions of CD80-Igαtp and CD86-Igαtp (5 ug/ml) were prepared in running buffer described above. Sample solutions were injected (60 ul) at 10 ul/min. Between samples, the surface was regenerated with a 30 ul injection of Gentle elution buffer (Pierce Chemicals, Rockville, Ill.).

[5] = added directly to PC28.1.s2.1 cells in solution, CTLL-2 3H-thymidine incorporation (FIG. 20B)
[6] = soluble protein, absence of CD3 crosslinking

Substance | IL-2 production [1, 5] | IL-2 response [1] | IL-2 production [1, 6] | IL-2 promoter activity [2] | interaction with CD28-Ig in solution by calorimetry (CD28-Ig [3]) | dissociation from CD28-Ig coated surface (CD28-Ig [4]) | level of IL-2 response at near saturation [1] | off-rate compared with CD80-Igαtp (CD28-Ig [4]; 5 ug/ml)
CD80-Ig: CD80 leader and extracellular domain grafted onto human IgG1 heavy chain Fc region; monomeric Ig fusion (Ig homodimer) [reference compound] | no stimulation | did not give a response | no activity | no stimulation | not detected | dissociates very rapidly | – | –
CD80-Igαtp: CD80 leader and extracellular domain linked to human IgG1 hinge/CH2/CH3 and terminating in human IgA1 tailpiece (αtp) | dose dependent stimulation | increased the IL-2 response | induced IL-2 production | dose dependent stimulation | did not show detectable binding | about three orders of magnitude slower | comparable to that observed for stimulation through cross-linking of CD3 with immobilized CD3 antibody | –
CD86-Igαtp: CD86 leader and extracellular domain linked to human IgG1 Fc and terminating in human IgA1 tailpiece (αtp) | dose dependent stimulation | increased the IL-2 response | induced IL-2 production | dose dependent stimulation | did not show detectable binding | dissociates slowly | comparable to that observed for stimulation through cross-linking of CD3 with immobilized CD3 antibody | higher than that for the CD80 construct
